Measured values published in patent EP0327744A1, “Oxytocin and vasopressin antagonists” (Merck & Co., Inc., priority 1988, dated 1989).
Read-outs that look alike come from different tables or passages of the source. Each block holds one molecule with its values, some of them ahead of it. Numbered stars: 1 amine (or outer) side, 2 acyl side, 3 side chain; on linkers, the order of the positions; unused ones are H or OH. Square brackets hold non-standard residues; d marks the D form. Peptide text beside a SMILES is read from it. ξ: configuration not given here. ξN(OH)Ile(3ξ) = CCC(C)C(NO)C(=O)O; NMeF = CN[CH](Cc1ccccc1)C(=O)O; X1 = O=C(C1CCCNN1[*:1])[*:2]

Tests used:
V₁(pressor)-receptor = target: T1, V₁(pressor)-receptor (Rattus norvegicus, UniProt P30560); assay: [³H]Arginine Vasopressin Binding Assay, liver membranes (V₁)
T1 construct: crude membrane preparation of rat liver (V₁ receptor); from tissue; host or cells: rat liver, crude membrane preparation
T1 sequence (P30560 whole entry): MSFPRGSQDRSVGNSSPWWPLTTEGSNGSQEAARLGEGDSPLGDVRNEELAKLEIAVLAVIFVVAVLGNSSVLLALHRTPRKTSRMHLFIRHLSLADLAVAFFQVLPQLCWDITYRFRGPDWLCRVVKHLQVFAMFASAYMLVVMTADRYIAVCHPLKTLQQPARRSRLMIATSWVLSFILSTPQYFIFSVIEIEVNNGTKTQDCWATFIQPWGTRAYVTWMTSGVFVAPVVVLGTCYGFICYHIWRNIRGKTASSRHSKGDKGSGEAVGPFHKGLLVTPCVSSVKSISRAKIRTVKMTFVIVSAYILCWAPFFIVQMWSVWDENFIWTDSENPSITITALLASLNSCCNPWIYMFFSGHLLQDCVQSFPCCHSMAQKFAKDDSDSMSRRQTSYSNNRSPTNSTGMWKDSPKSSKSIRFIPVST
Text: (§1) The table summarizes the in vitro potencies of the various components to compete for ³H-vasopressin binding at two proposed vasopressin receptor subtypes (V₁, V₂), as well as to inhibit vasopressin-stimulated adenylate cyclase activity, a further measure of vasopressin antagonism.
(§2) The [³H]Arginine Vasopressin Binding Assay is an in vitro procedure which was adapted from the method of Guillon et al., Eur. J. Pharmacol. 85: […] (1982). It measures the relative affinity of the various test compounds for vasopressin receptor(s) labelled by [³H]vasopressin. Vasopressin receptors have been divided into two subtypes pharmacologically: the V₁(pressor)-receptor found in liver and vascular smooth muscle and the V₂(antidiuretic)-receptor found in kidney medulla. The binding assay uses a crude membrane preparation of rat liver (V₁ receptor) or kidney medulla (V₂ receptor) which is incubated with [³H]vasopressin in the presence or absence of the test compound. The IC₅₀ values (concentrations to inhibit [³H]vasopressin binding by 50%) for the various compounds (see Table III) are measures of their potencies and are inversely related to their affinities.

[1] = target: T2, V₂(antidiuretic)-receptor (Rattus norvegicus, UniProt Q00788); assay: [³H]Arginine Vasopressin Binding Assay, kidney medulla membranes (V₂)
T2 construct: crude membrane preparation of rat liver (V₁ receptor) or kidney medulla (V₂ receptor); from tissue; host or cells: rat kidney medulla, crude membrane preparation
T2 sequence (Q00788 whole entry): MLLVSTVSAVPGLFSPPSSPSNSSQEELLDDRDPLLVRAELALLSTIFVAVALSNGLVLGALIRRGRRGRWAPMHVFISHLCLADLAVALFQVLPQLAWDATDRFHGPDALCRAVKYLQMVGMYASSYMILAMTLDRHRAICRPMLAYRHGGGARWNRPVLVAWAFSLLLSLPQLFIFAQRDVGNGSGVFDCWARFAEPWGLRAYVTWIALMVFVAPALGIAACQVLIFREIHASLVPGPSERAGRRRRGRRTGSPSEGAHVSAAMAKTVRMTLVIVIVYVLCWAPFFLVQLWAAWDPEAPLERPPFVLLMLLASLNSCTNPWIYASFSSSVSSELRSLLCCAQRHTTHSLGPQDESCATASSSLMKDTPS
Text: as §1, §2

[2] = target: T3, Vasopressin-stimulated adenylate cyclase in kidney medulla (V₂) (Rattus norvegicus, UniProt Q00788); assay: Vasopressin-stimulated adenylate cyclase functional assay in kidney medulla (V₂ antagonism); format: biochemical
T3 construct: Vasopressin-stimulated adenylate cyclase in kidney medulla, therefore, is used as a functional assay; from tissue
T3 sequence (Q00788 whole entry): as above
Text: as §1
Vasopressin exerts its antidiuretic effects on the kidney through the stimulation of adenylate cyclase activity. Vasopressin-stimulated adenylate cyclase in kidney medulla, therefore, is used as a functional assay to determine the potencies of the various test compounds as V₂-vasopressin antagonists. In this assay, the IC₅₀ values obtained for the various compounds (see Table III) are measures of their potencies to inhibit the vasopressin-stimulated conversion of ATP to cAMP by adenylate cyclase. This method was adapted from Seamon et al., PNAS 78: 3363-3367 (1981).

oxytocin receptor = target: T4, oxytocin receptor (Rattus norvegicus, UniProt P70536); assay: [³H]Oxytocin Binding Assay (crude membrane preparation of rat uterus); conditions: inhibition of [³H]oxytocin binding, rat uterus membranes; read-out: IC₅₀ (nM) [³H]OT (uterus)
T4 construct: crude membrane preparation of rat uterus as the source of oxytocin receptors; from tissue; host or cells: rat uterus, crude membrane preparation
T4 sequence (P70536 1-388): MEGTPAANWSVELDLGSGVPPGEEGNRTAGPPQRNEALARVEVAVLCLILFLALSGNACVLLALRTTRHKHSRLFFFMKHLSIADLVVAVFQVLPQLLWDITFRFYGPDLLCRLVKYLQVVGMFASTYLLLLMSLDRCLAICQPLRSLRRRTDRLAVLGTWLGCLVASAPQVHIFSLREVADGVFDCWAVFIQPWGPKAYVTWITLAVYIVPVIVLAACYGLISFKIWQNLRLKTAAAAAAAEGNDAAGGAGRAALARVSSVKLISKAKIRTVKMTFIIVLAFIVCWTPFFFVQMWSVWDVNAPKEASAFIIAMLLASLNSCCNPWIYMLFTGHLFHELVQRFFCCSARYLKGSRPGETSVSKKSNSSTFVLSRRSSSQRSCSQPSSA
Text: Oxytocin receptors have been identified in mammalian uterine tissue through the use of in vitro radioligand binding assays. These receptor binding sites mediate the contractile response of the uterine myometrium to oxytocin. […] The assay uses a crude membrane preparation of rat uterus as the source of oxytocin receptors. […]

[3] = IC₅₀ Values ³H-Arg⁸-Vasopressin Binding Liver (V₁), rat liver membranes, mean ± standard error
[4] = IC₅₀ Values ³H-Arg⁸-Vasopressin Binding Kidney (V₂), rat kidney medulla membranes, mean ± standard error

SMILES: CC(C)C1C(=O)N2NCCCC2C(=O)N2NCCCC2C(=O)N(C)C(Cc2ccccc2)C(=O)N2CCCC2C(=O)NC(Cc2ccccc2)C(=O)N1O (centres unmarked) [Component A]
IC50 (V₁(pressor)-receptor; [3]): 6.8 µM | IC50 [1, 4]: 7.9 µM | IC50 [2]: 19 µM

SMILES: CCC(C)C1C(=O)N2NCCCC2C(=O)N2NCCCC2C(=O)N(C)C(Cc2ccccc2)C(=O)N2CCCC2C(=O)NC(Cc2ccccc2)C(=O)N1O (centres unmarked) [Formula I] (cyclo([ξN(OH)Ile(3ξ)][X1][X1][NMeF]PF); configuration not given here)
IC50 (V₁(pressor)-receptor): 11.7 ± 1.7 µM | IC50 [1]: 9.8 ± 1.7 µM | IC50 [2]: 10.2 ± 1.1 µM | IC50 (oxytocin receptor): 370 ± 70 nM

SMILES: CC(C)CC1C(=O)N2NCCCC2C(=O)N2NCCCC2C(=O)N(C)C(Cc2ccccc2)C(=O)N2CCCC2C(=O)NC(C(C)C)C(=O)N1O (centres unmarked) [Component B]
IC50 (V₁(pressor)-receptor; [3]): 67.3 ± 16.5 µM | IC50 [1, 4]: 35.3 ± 6.1 µM | IC50 [2]: 62.7 ± 4.6 µM

IC50 (V₁(pressor)-receptor; rat liver membranes, molar IC₅₀ in brackets, based on MW of 700, read-out: IC₅₀ Values ³H-Arg⁸-Vasopressin Binding Liver (V₁) (converted)): 30 µM | IC50 (V₁(pressor)-receptor; rat liver membranes, value in µg/ml (exact MW not known), read-out: IC₅₀ Values ³H-Arg⁸-Vasopressin Binding Liver (V₁) (converted)): 28.4 µM | IC50 ([1]; rat kidney medulla membranes, molar IC₅₀ in brackets, based on MW of 700, read-out: IC₅₀ Values ³H-Arg⁸-Vasopressin Binding Kidney (V₂) (converted)): 19 µM | IC50 ([1]; rat kidney medulla membranes, value in µg/ml (exact MW not known), read-out: IC₅₀ Values ³H-Arg⁸-Vasopressin Binding Kidney (V₂) (converted)): 18.3 µM | IC50 ([2]; kidney medulla, molar IC₅₀ in brackets, based on MW of 700, read-out: IC₅₀ Values AVP-stimulated Ad. Cyclase Kidney (V₂) (converted)): 20 µM | IC50 ([2]; kidney medulla, value in µg/ml (exact MW not known), read-out: IC₅₀ Values AVP-stimulated Ad. Cyclase Kidney (V₂) (converted)): 19.3 µM
SMILES: CCC(C)C1NC(=O)C2CCCN2C(=O)C(Cc2ccccc2)N(C)C(=O)C2CCCNN2C(=O)C2CCCNN2C(=O)C(CC(C)C)N(O)C1=O (centres unmarked) [Component D]

SMILES: CCC(C)C1NC(=O)C(Cc2ccccc2)NC(=O)C2CCCN2C(=O)C(Cc2ccccc2)N(C)C(=O)C2CCCNN2C(=O)C2CCCNN2C1=O (centres unmarked) [Example 9] (cyclo([X1][X1][NMeF]PFI); configuration not given here)
IC50 (oxytocin receptor): 170 ± 15 nM

SMILES: CC(C)CC1C(=O)N2NCCCC2C(=O)N2NCCCC2C(=O)N(C)C(Cc2ccccc2)C(=O)N2CCCC2C(=O)NC(Cc2ccccc2)C(=O)N1O (centres unmarked) [Component C]
IC50 (V₁(pressor)-receptor; IC₅₀ Values ³H-Arg⁸-Vasopressin Binding Liver (V₁), rat liver membranes, molar IC₅₀ in brackets, based on MW of 700): 6 µM | IC50 (V₁(pressor)-receptor; IC₅₀ Values ³H-Arg⁸-Vasopressin Binding Liver (V₁), rat liver membranes, value in µg/ml (exact MW not known)): 5.53 µM | IC50 ([1]; IC₅₀ Values ³H-Arg⁸-Vasopressin Binding Kidney (V₂), rat kidney medulla membranes, molar IC₅₀ in brackets, based on MW of 700): 13 µM | IC50 ([1]; IC₅₀ Values ³H-Arg⁸-Vasopressin Binding Kidney (V₂), rat kidney medulla membranes, value in µg/ml (exact MW not known)): 11.9 µM | IC50 ([2]; read-out: IC₅₀ Values AVP-stimulated Ad. Cyclase Kidney (V₂), kidney medulla, molar IC₅₀ in brackets, based on MW of 700): 13 µM | IC50 ([2]; read-out: IC₅₀ Values AVP-stimulated Ad. Cyclase Kidney (V₂), kidney medulla, value in µg/ml (exact MW not known)): 12.1 µM
